Laboratory results published in PubChem BioAssay AID248 (DTP/NCI, 2004).
Where “and” joins values, the source holds several entries; their conditions need not be identical. Equal values may be shown once. Toxic doses and inconclusive results are not listed. Rule as the data show it: active = T/C of 150% or more; inactive = T/C below 125%.

System: L1210 leukemia ip in BDF1 mice, survival T/C
Assay: NCI In Vivo Anticancer Drug Screen. Data for tumor model L1210 Leukemia (intraperitoneal) in B6D2F1 (BDF1) mice
Settings: endpoint: mean survival time, higher = longer survival
In short: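 Ratio derived from survival: compound-dosed mice over vehicle-dosed mice, all bearing a transplantable tumor.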

[1] = dose: 100.0 mg/kg/injection, schedule: Q01DX001 (ip), vehicle: saline
[2] = dose: 100.0 mg/kg/injection, schedule: Q04DX003 (ip), vehicle: Klucel (hydroxypropylcellulose) (HPC)
[3] = dose: 200.0 mg/kg/injection, schedule: Q04DX003 (ip), vehicle: Klucel (hydroxypropylcellulose) (HPC)
[4] = dose: 400.0 mg/kg/injection, schedule: Q04DX003 (ip), vehicle: Klucel (hydroxypropylcellulose) (HPC)
[5] = dose: 50.0 mg/kg/injection, schedule: Q01DX001 (ip), vehicle: saline
[6] = dose: 200.0 mg/kg/injection, schedule: Q01DX001 (ip), vehicle: saline
[7] = dose: 400.0 mg/kg/injection, schedule: Q01DX001 (ip), vehicle: saline
[8] = dose: 100.0 mg/kg/injection, schedule: Q04DX003 (ip), vehicle: saline with Tween-80
[9] = dose: 200.0 mg/kg/injection, schedule: Q04DX003 (ip), vehicle: saline with Tween-80
[10] = dose: 400.0 mg/kg/injection, schedule: Q04DX003 (ip), vehicle: saline with Tween-80
[11] = dose: 12.5 mg/kg/injection, schedule: Q01DX009 (ip), vehicle: saline with Tween-80
[12] = dose: 25.0 mg/kg/injection, schedule: Q01DX009 (ip), vehicle: saline with Tween-80
[13] = dose: 50.0 mg/kg/injection, schedule: Q01DX009 (ip), vehicle: saline with Tween-80

Measured: T/C

Cc1csc[n+]1Cc1ccc([N+](=O)[O-])cc1
inactive: dose: 5.0 mg/kg/injection, schedule: Q01DX001 (ip), vehicle: saline 100 % of control | dose: 10.0 mg/kg/injection, schedule: Q01DX001 (ip), vehicle: saline 102 % of control | dose: 20.0 mg/kg/injection, schedule: Q01DX001 (ip), vehicle: saline 102 % of control | dose: 40.0 mg/kg/injection, schedule: Q01DX001 (ip), vehicle: saline 103 % of control | dose: 80.0 mg/kg/injection, schedule: Q01DX001 (ip), vehicle: saline 100 % of control | [1] 98 % of control

CCN(C(=O)Nc1cccc(C(F)(F)F)c1)c1ccccc1C(F)(F)F
inactive: [2] 98 % of control | [3] 91 % of control | [4] 93 % of control

OCC(O)C(O)C(O)C(O)C(c1ccc(F)cc1)c1ccc(F)cc1 (stereo not given)
inactive: [5] 98 % of control | [1] 106 % of control and 102 % of control | [6] 101 % of control | [7] 93 % of control

O=C1c2ccccc2-c2ccc([N+](=O)[O-])c(Br)c21
inactive: dose: 100.0 mg/kg/injection, schedule: Q01DX001 (ip), vehicle: carboxymethylcellulose (CMC) 106 % of control | dose: 200.0 mg/kg/injection, schedule: Q01DX001 (ip), vehicle: carboxymethylcellulose (CMC) 106 % of control | dose: 400.0 mg/kg/injection, schedule: Q01DX001 (ip), vehicle: carboxymethylcellulose (CMC) 102 % of control

FC(F)(CI)C(F)(F)C(F)(F)CI
inactive: dose: 100.0 mg/kg/injection, schedule: Q01DX001 (ip), vehicle: acetone 88 % of control | dose: 200.0 mg/kg/injection, schedule: Q01DX001 (ip), vehicle: acetone 88 % of control | dose: 400.0 mg/kg/injection, schedule: Q01DX001 (ip), vehicle: acetone 88 % of control

Cc1ccccc1NP1(=O)OCCCN1Cc1ccc(Cl)cc1 (stereo not given)
inactive: [5] 106 % of control | [1] 102 % of control | [6] 106 % of control | [7] 100 % of control

CCC(=O)Nc1ccc(C)cc1C
inactive: dose: 100.0 mg/kg/injection, schedule: Q01DX009 (ip), vehicle: Klucel (hydroxypropylcellulose) (HPC) 92 % of control | [2] 97 % of control | dose: 200.0 mg/kg/injection, schedule: Q01DX009 (ip), vehicle: Klucel (hydroxypropylcellulose) (HPC) 94 % of control | [3] 107 % of control | [4] 96 % of control

CCOC(=O)C(C(=O)OCC)C(CC)c1ccccc1 (stereo not given)
inactive: dose: 100.0 mg/kg/injection, schedule: Q01DX009 (ip), vehicle: saline with Tween-80 101 % of control | dose: 100.0 mg/kg/injection, schedule: Q04DX002 (ip), vehicle: saline with Tween-80 103 % of control | dose: 200.0 mg/kg/injection, schedule: Q01DX009 (ip), vehicle: saline with Tween-80 92 % of control | dose: 200.0 mg/kg/injection, schedule: Q04DX002 (ip), vehicle: saline with Tween-80 100 % of control | dose: 400.0 mg/kg/injection, schedule: Q01DX009 (ip), vehicle: saline with Tween-80 95 % of control | dose: 400.0 mg/kg/injection, schedule: Q04DX002 (ip), vehicle: saline with Tween-80 95 % of control

CC(C)/C=C(\C#N)C(=O)O
inactive: dose: 12.5 mg/kg/injection, schedule: Q04DX003 (ip), vehicle: Klucel (hydroxypropylcellulose) (HPC) 97 % of control | dose: 25.0 mg/kg/injection, schedule: Q01DX009 (ip), vehicle: Klucel (hydroxypropylcellulose) (HPC) 95 % of control | dose: 25.0 mg/kg/injection, schedule: Q04DX003 (ip), vehicle: Klucel (hydroxypropylcellulose) (HPC) 101 % of control | dose: 50.0 mg/kg/injection, schedule: Q01DX009 (ip), vehicle: Klucel (hydroxypropylcellulose) (HPC) 95 % of control | dose: 50.0 mg/kg/injection, schedule: Q04DX003 (ip), vehicle: Klucel (hydroxypropylcellulose) (HPC) 98 % of control

C=CC(=O)NC(C)C
inactive: [8] 102 % of control | [9] 104 % of control | [10] 86 % of control

CCCCCOc1ccc(C(=O)/C(Br)=C/C(=O)O)cc1
inactive: [11] 98 % of control | [12] 96 % of control | [13] 101 % of control

CC/C(=C/c1cccc(OC)c1OC)[N+](=O)[O-]
inactive: [11] 105 % of control | [12] 98 % of control | [13] 96 % of control | [8] 107 % of control | [9] 90 % of control

Nc1nc(N)c(-c2ccc(Cl)cc2)c(COc2cccc(NC(=O)c3ccc([N+](=O)[O-])cc3)c2)n1
inactive: dose: 100.0 mg/kg/injection, schedule: Q01DX001 (ip), vehicle: Klucel (hydroxypropylcellulose) (HPC) 104 % of control | dose: 200.0 mg/kg/injection, schedule: Q01DX001 (ip), vehicle: Klucel (hydroxypropylcellulose) (HPC) 97 % of control | dose: 400.0 mg/kg/injection, schedule: Q01DX001 (ip), vehicle: Klucel (hydroxypropylcellulose) (HPC) 91 % of control

CC1CCCCC12C(=O)NC(=S)NC2=O (stereo not given)
inactive: dose: 75.0 mg/kg/injection, schedule: Q01DX001 (ip), vehicle: other 112 % of control | dose: 150.0 mg/kg/injection, schedule: Q01DX001 (ip), vehicle: other 98 % of control | dose: 300.0 mg/kg/injection, schedule: Q01DX001 (ip), vehicle: other 101 % of control

SC1(S)CN2CCC1CC2
inactive: dose: 6.25 mg/kg/injection, schedule: Q01DX009 (ip), vehicle: saline 96 % of control | dose: 6.25 mg/kg/injection, schedule: Q04DX003 (ip), vehicle: saline 105 % of control | dose: 12.5 mg/kg/injection, schedule: Q01DX009 (ip), vehicle: saline 94 % of control | dose: 12.5 mg/kg/injection, schedule: Q04DX003 (ip), vehicle: saline 91 % of control | dose: 25.0 mg/kg/injection, schedule: Q04DX003 (ip), vehicle: saline 93 % of control

CCCCCCCN(CCCCCCC)C(=O)N(C)C
inactive: dose: 100.0 mg/kg/injection, schedule: Q04DX002 (sc), vehicle: olive oil, sesame oil, peanut oil 104 % of control | dose: 200.0 mg/kg/injection, schedule: Q04DX002 (sc), vehicle: olive oil, sesame oil, peanut oil 107 % of control | dose: 400.0 mg/kg/injection, schedule: Q04DX002 (sc), vehicle: olive oil, sesame oil, peanut oil 114 % of control

C/C=C/c1cc(OC)cc(C2(O)OC(=O)c3c(OC)cccc32)c1OC (stereo not given)
inactive: [8] 105 % of control | [9] 94 % of control | [10] 100 % of control

COc1ccc(Cl)cc1NC(=O)Nc1cccc2c(O)cccc12
inactive: dose: 100.0 mg/kg/injection, schedule: Q01DX009 (ip), vehicle: saline 96 % of control | dose: 100.0 mg/kg/injection, schedule: Q04DX003 (ip), vehicle: saline 107 % of control | dose: 200.0 mg/kg/injection, schedule: Q01DX009 (ip), vehicle: saline 100 % of control | dose: 200.0 mg/kg/injection, schedule: Q04DX003 (ip), vehicle: saline 107 % of control | dose: 400.0 mg/kg/injection, schedule: Q01DX009 (ip), vehicle: saline 96 % of control | dose: 400.0 mg/kg/injection, schedule: Q04DX003 (ip), vehicle: saline 103 % of control

O=C(c1ccccc1)C1C(C(=O)c2ccccc2)N1C1CCCCC1 (stereo not given)
inactive: [2] 91 % of control | [3] 91 % of control | [4] 96 % of control

O=[N+]([O-])c1ccc(C=Nc2ccc(Cc3ccncc3)cc2)cc1
inactive: dose: 100.0 mg/kg/injection, schedule: Q01DX009 (ip), vehicle: carboxymethylcellulose (CMC) 93 % of control and 100 % of control | dose: 100.0 mg/kg/injection, schedule: Q04DX002 (ip), vehicle: carboxymethylcellulose (CMC) 104 % of control | dose: 100.0 mg/kg/injection, schedule: Q04DX003 (ip), vehicle: carboxymethylcellulose (CMC) 101 % of control | dose: 200.0 mg/kg/injection, schedule: Q01DX009 (ip), vehicle: carboxymethylcellulose (CMC) 97 % of control and 98 % of control | dose: 200.0 mg/kg/injection, schedule: Q04DX002 (ip), vehicle: carboxymethylcellulose (CMC) 98 % of control | dose: 200.0 mg/kg/injection, schedule: Q04DX003 (ip), vehicle: carboxymethylcellulose (CMC) 94 % of control | dose: 400.0 mg/kg/injection, schedule: Q01DX009 (ip), vehicle: carboxymethylcellulose (CMC) 95 % of control and 91 % of control | dose: 400.0 mg/kg/injection, schedule: Q04DX002 (ip), vehicle: carboxymethylcellulose (CMC) 93 % of control | dose: 400.0 mg/kg/injection, schedule: Q04DX003 (ip), vehicle: carboxymethylcellulose (CMC) 100 % of control
